In patent publication US20250381169A1, “METHODS FOR TREATING RENAL DISEASE” (Arizona Board of Regents on Behalf of the University of …, priority 2022, published 2025):
“Also recorded” adds a separate entry of the source.

Columns and labels:
[1] = test system: kidney cortex of naïve mice; assay: Mitochondrial biogenesis in kidney cortex of naïve mice; type: in vivo
Protocol: Mice were treated with vehicle, 0.3 mg/kg or 1 mg/kg of MC16 with 2 doses IP (Oh, 24h) and harvested at 48 h.
Proteins were measured using immunoblot analysis or PCR to measure mRNA. […] FIG. 2G is a table of antioxidant and electron transport chain proteins and associated mRNAs.

[2] = test system: renal proximal tubule cells (RPTCs); assay: Renal proximal tubule cells treated with high glucose; type: cell-based
Protocol: Here, the effects of MC16 on mitochondrial dysfunction and dynamics in renal proximal tubule cells (RPTCs) treated with high glucose and in a mouse model of type 2 diabetes was assessed.

[3] = test system: mice subjected to renal I/R; assay: Mouse AKI model (renal ischemia reperfusion, I/R); type: in vivo
Protocol: Control and treated mice subjected to renal I/R were treated with MC16 (0.3 mg/kg) or vehicle 24 h after injury and then daily for 120 h (euthanized at 144 h). Using electron microscopy, mitochondria were counted. Vascular permeability was assessed with Evan's blue dye leakage and proteins were measured in renal cortices using immunoblot. Serum creatinine was also measured.

[4] = test system: Db/db mice; assay: db/db mouse model of diabetic kidney disease; type: in vivo
Protocol: Db/db and nondiabetic (db/m) mice (10 wk old) were treated with MC16 or vehicle for 3 wk and euthanized.

[5] = test system: aged mouse kidneys (renal cortex); assay: Global metabolomics of renal cortex in aged mice; type: in vivo
Protocol: Aged 22-month-old male C57B/6J mice were administered 1.0 mg/kg of MC16 or normal saline every other day over a 21-day interval (n=8-9/group). Seven-month-old C57B/6J male mice (controls) were administered normal saline every other day over a 21-day interval (n=7). Kidneys were harvested and snap frozen in liquid nitrogen. Renal cortex biopsies were analyzed by Metabolon for global metabolomic analyses. Briefly, samples were processed and divided into four fractions: two for analysis by RP/UPLC-MS/MS with (+) ion mode electrospray ionization (IMESI), one for RP/UPLC-MS/MS with (−) IMESI, and one for HILIC/UPLC-MS/MS with (−) IMESI. […] A p-value of p≤0.05 and a false discovery rate of q<0.10 were utilized to identify global metabolite alteration and correct for multiple comparisons, respectively.

[6] = RPTCs exposed to 17 mM glucose, 96 h
[7] = I/R+MC16 group, decreased in I/R group
[8] = FIG. 16, compared to diabetic mice getting vehicle
[9] = db/db mice 10 wk old, treated for 3 wk
[10] = MC16-treated 'old' mice compared to saline-treated 'old' mice
[11] = MC16-treated 'old' mice vs saline-treated 'young' control mice

For `CCN1C(=O)C(Cc2cccc(OC)c2O)(OC(=O)N(C)C)c2cc(Cl)ccc21` (stereo not shown) [MC16, 5-chloro-1-ethyl-3-(2-hydroxy-3-methoxybenzyl)-2-oxoindolin-3-yl dimethylcarbamate], the “mitochondrial and antioxidant proteins” value ([1]; immunoblot or PCR, n=6) was “increases”, the “mitochondrial biogenesis pathway proteins and/or associated mRNA” value ([1]; immunoblot or PCR, n=6) was “induces” and the “Mitochondrial number in kidney cortex” value ([1]; naïve mice, 0.3 mg/kg or 1 mg/kg, 2 doses IP (0 h, 24 h), harvested at 48 h) was “increases”. The ATP [2, 6] was “restored”, the ETC proteins [2, 6] was “restored” and the oxygen consumption rate [2, 6] was “restored”. The Mfn1 ([2]; RPTCs exposed to high glucose) was “restored”, the phospho-Drp1 ([2]; RPTCs exposed to high glucose) was “restored” and the “recovery of renal function (serum creatinine)” value ([3]; FIG. 3, n=6) was “promotes recovery”. For the same compound, the “recovery of tubular injury (Kim1 expression)” value ([3]; FIG. 3, n=6) was “promotes recovery”, the MFN2 ([3]; FIG. 5, during injury or MC16 treatment) was “did not change” and the “MFN1 (fusion)” value ([3]; FIG. 5, n=6) was “increases”. For the same compound, the “pDRP1 (fission)” value ([3]; FIG. 6, at 144 h) was “decreases”, the DRP1 ([3]; FIG. 6, n=6) was “does not have an affect” and the “PGC-1α in the cytosolic fraction” value ([3]; FIG. 7, cytosolic fraction) was “not in the cytosolic fraction”. The “nuclear PGC-1α (biogenesis)” value ([3]; FIG. 7, nuclear fraction) was “increases”, the serum creatinine decrease ([3]; I/R+MC16, 0.3 mg/kg from 24 h after injury, daily, at 144 h (I/R group alone 41%)) was 72% and the Kim1 decrease ([3]; I/R+MC16 group, 0.3 mg/kg, 144 h) was 50%. For the same compound, the PGC-1α ([3]; I/R+MC16 group, renal cortex immunoblot) was “increased”, the “Tight junction protein Claudin5” value [3, 7] was “recovered” and the “Tight junction protein ZO-1” value [3, 7] was “recovered”. The “Evan's blue dye leakage (vascular permeability)” value ([3]; I/R+MC16 group, increased 2.5-fold in I/R group) was “restored”, the “mitochondria biogenesis in renal cortices” value ([3]; mitochondria counted by electron microscopy, 0.3 mg/kg) was 1.4 fold and the PGC1α ([4]; FIG. 9, n=6) was “restores”. The “MFN2 (fusion)” value ([4]; FIG. 10, n=6) was “increased”, the mitochondrial fission proteins ([4]; FIG. 11, n=6) was “no effect” and the mitophagy proteins ([4]; FIG. 12, n=6) was “increases”. The “glomerular function over time” value ([4]; FIG. 13, mice have yet to show signs of DKD in the timeframe) was “does not change”, the “vascular tight junction proteins” value ([4]; FIG. 15, n=6) was “improves” and the blood glucose [4, 8] was “does not increase/decrease”. For the same compound, the urine output [4, 8] was “does not increase/decrease”, the kidney weight ([4]; FIG. 17, relative to control mice) was “normalized” and the KIM1 ([4]; FIG. 18) was “normalizes”. For the same compound, the NGAL ([4]; FIG. 18) was “No effects”, the serum creatinine ([4]; FIG. 18) was “normalizes” and the ATP [4, 9] was “prevented; also recorded: restores”. The phospho-Drp1 [4, 9] was “restored”, the “renal cortical ETC protein levels (complexes I, III, and V)” value [4, 9] was “prevented; also recorded: restores” and the “reduction in DHAP” value [5, 10] was 20%. The “reduction in fructose-6-phosphate” value [5, 10] was 24%, the “reduction in glucose-6-phosphate” value [5, 10] was 32% and the “long chain polyunsaturated fatty acids (n3 and n6)” value ([5]; MC16-treated 'old' mice vs saline-treated 'old' and 'young' mice controls) was “increase”. The glycolysis metabolites [5, 11] was “no statistical changes”, the “metabolic lipid alterations (diacylglycerols, monoacylglycerols, acyl glycines, PC, PE, plasmalogens, secondary bile acids)” value [5, 11] was “not observed” and the “origin of carnitine species” value ([5]; MC16-treated 'old' mice, saline-treated 'old' mice: leucine, isoleucine, valine metabolism) was “fatty acid metabolism”. For the same compound, the carnitine levels ([5]; both 'old' groups (saline and MC16)) was “elevated”.
